Data: US6710075B2, “Therapeutic compounds and methods” (The Government of the State of Sarawak, Malaysia, priority 2000, dated 2004)

Experiments:
A549 cells [1] = assay: Acute general protein biosynthesis inhibition, [14C] leucine incorporation, A549 cells; format: cell-based, human; details: 1 hour pretreatment + 2 hours label, read-out: IC50 Protein synthesis
THP-1 cells [2] = assay: Acute DNA synthesis inhibition, [14C] thymidine incorporation, THP-1 cells; format: cell-based, human; details: 1 hour pretreatment + 2 hours label
[3] = system: panel of cell lines derived from a variety of human tumour types; assay: Cytostatic activity against a panel of human tumour cell lines (summary); format: cell-based; details: 72 h, range over the cell line panel, 3 days, read-out: GI50 values in nearly all cell lines tested
Description: (§1) (b) Compound A was assessed for cytotoxic and cytostatic activity against a panel of cell lines derived from a variety of human tumour types in addition to THP-1 and A549 cells (Table 5). These included K562 leukemic cells (Lozzio and Lozzio, 1975, Blood 45:321-34), PC3 prostate tumour cells (Kaighn et al., 1979, Invest. Urol. 17:16-23) and SF268 glioblastoma cells (Westphal et al, 1985, Biochem. Biophys. Res. Commun., 132:284-9). […] However, the cytotoxic potency of Compound A increased dramatically after 6 days of culture for the K562, A549 and SF268 cells.

SF268 = assay: Cytostatic activity, relative cell number by YOYO-1 DNA dye; format: cell-based; details: Homo sapiens, SF-268, 72 h; SF268, brain; read-out: GI50 (3 day cultures)
Description: as §1

PC3 = assay: as above; format: cell-based; details: Homo sapiens, PC-3, 72 h; PC3, prostate; read-out: GI50 (3 day cultures)
Description: as §1

K562 = assay: as above; format: cell-based; details: Homo sapiens, 72 h; K562, leukemia; read-out: GI50 (3 day cultures)
Description: as §1

A549 cells [4] = assay: Reversibility of cytostatic effect in A549 cells after removal of compound; format: cell-based, human; details: A549, 10 nM for 5 days, then 4 days without compound
Description: A549 cells were seeded at ˜10,000 cells/well and cultured in the presence of the indicted concentrations of Compound A or paclitaxel and the viable cell numbers determined by haemocytometer counting of trypan blue stained cells at the various times. On day 5 some of the cells were washed, resuspended in fresh medium lacking the various treatments and cultured for another 4 days prior to counting.
The reversibility of the effects of Compound A was determined. For this, A549 cells remained untreated or were cultured in the presence of various concentrations of Compound A or with paclitaxel for 5 days prior to removal of the compounds and the cells cultured for a further 4 days prior to determining cell number (FIG. 6). […] The effects of treatments which were deleterious to the cells, such as higher concentrations of Compound A or the presence of paclitaxel, were not reversed upon their removal.

A549 cells [5] = assay: Proliferation of A549 cells, haemocytometer counting of trypan blue stained cells; format: cell-based, human; details: for cell death: after 9 days
Description: A549 cells were seeded at ˜10,000 cells/well and cultured in the presence of the indicted concentrations of Compound A or paclitaxel. Cells were collected and the viable cell number determined by haemocytometer counting of trypan blue stained cells at the various times. The results are the averages ±SEM of triplicate cultures.
The cytostatic effect of Compound A on the proliferation of A549 cells was confirmed by directly counting the number of cells at intervals over a nine day period (FIG. 3). When compared to untreated cells 10 nM Compound A prevented the increase in cell number by more than 95% with fewer than 10% dead cells observed at this time (measured by trypan blue exclusion). Thus, under these conditions the decreased cell number can not simply be accounted for by increased cell death. […] At the higher concentrations of 50 nM and 250 nM Compound A had cytotoxic effects and increased cell death to 86% and 100% respectively after 9 days and accounts for the decline in cell number to levels below the original staring number at this time. At the non-cytotoxic concentration of 10 nM, Compound A has a rapid and potent cytostatic effect on A549 cells.

THP-1 cells [6] = assay: Acute general protein biosynthesis inhibition, [14C] leucine incorporation, THP-1 cells; format: cell-based, human; details: 1 hour pretreatment + 2 hours label, read-out: IC50 Protein synthesis
THP-1 cells [7] = assay: Cell death as loss of membrane integrity, YOYO-1 uptake; format: cell-based; details: Homo sapiens, 72 h; THP-1 cells, 3 days, YOYO-1 uptake; read-out: LC50 (the source's name)
From the text: (§2) (a) Table 8 compares the cytostatic and cytotoxic effects of Compound A to three previously identified 1H-cyclopenta[b]benzofuran lignans that lack the dioxanyloxy group at the C6-position. The reference compounds are: Rocaglaol (Reference Compound 1) (Ohse et al., J Nat Prod, 1996, 59(7):650-52); 4′-Demethoxy-3′,4′-methylenedioxyrocaglaol (Reference Compound 2) and Methyl 4′-demethoxy-3′,4′-methylenedioxyrocaglate (Reference Compound 3) (Lee et al., Chem Biol Interact, 1998, 115(3):215-28).

A549 cells [8] = assay: as above; format: cell-based; details: Homo sapiens, 72 h; A549 cells, 3 days, YOYO-1 uptake; read-out: LC50 (the source's name)
From the text: as §2

A549 cells [9] = assay: Protein synthesis, [14C]-leucine uptake, A549 cells; format: cell-based, human; details: Homo sapiens, A549, 72 h
From the text: (§3) (a) Compounds A and B were identified from a bark sample of Aglaia leptantha through their ability to inhibit production of Tumour Necrosis Factor-α (TNF-α) by THP-1 human promonocytic leukemia cells (Tsuchiya, et al, Int. J. Cancer, 1980, 26(2):171-6) activated with lipopolysaccharide (LPS). Table 4 summarises the results comparing the activity of Compounds A and B for inhibition of TNF-α production to their effects on general cell metabolism measured using WST-1 reduction, DNA synthesis and protein synthesis assays for THP-1 cells. […] For comparison, the effects of Compounds A and B on A549 lung epithelial carcinoma cells (Leiber et al, Int. J. Cancer, 1976, 17(1)-62-70) were also measured and the data is also included in Table 4.

THP-1 cells [10] = assay: Protein synthesis, [14C]-leucine uptake, THP-1 cells; format: cell-based, human; details: 48 hours
From the text: as §3

A549 cells [11] = assay: DNA synthesis, [14C]-thymidine uptake, A549 cells; format: cell-based, human; details: Homo sapiens, A549, 72 h
From the text: as §3

[12] = Homo sapiens, THP-1, THP-1 cells

SMILES: COC(=O)[C@H]1[C@@H](O)[C@@]2(O)c3c(OC)cc(OC4OC(C(O)CO)COC4OC)cc3O[C@@]2(c2ccc(OC)cc2)[C@@H]1c1ccccc1 (single isomer, unassigned) [Compound A]
- IC50 (A549 cells [1]; A549 cells): 32 nM
- IC50 (A549 cells [1]; Homo sapiens, A549, A549 cells): ~30 nM
- IC50 (THP-1 cells [2]; [12]): ~70 nM
- IC50 (THP-1 cells [2]; THP-1 cells): 72 nM
- GI50 [3]: 1 to 7 nM
- GI50 (SF268): 3 nM
- GI50 (PC3): 5 nM
- GI50 (K562): 1 nM
- cell number after removal of compound (A549 cells [4]): over a five-fold increase in cell number
- population doublings after removal of compound (A549 cells [4]): 2-3
- dead cells (trypan blue exclusion) (A549 cells [5]; A549, 10 nM): < 10%
- prevention of the increase in cell number compared to untreated cells (A549 cells [5]; A549, 10 nM, nine day period): more than 95%
- cell death (A549 cells [5]; A549, 50 nM): 86%
- cell death (A549 cells [5]; A549, 250 nM): 100%
- IC50 (THP-1 cells [6]; [12]): ~30 nM
- IC50 (THP-1 cells [6]; THP-1 cells): 27 nM
- CC50 (THP-1 cells [7]): 15 nM
- CC50 (A549 cells [8]): 514 nM
- IC50 (A549 cells [9]): 20 nM
- IC50 (THP-1 cells [10]): 60 nM
- IC50 (A549 cells [11]): 7 nM
